The source made the active and inactive calls. The rule behind the calls is not given here.
Legend:
[1] = system: Dual specificity mitogen-activated protein kinase kinase 6 (Homo sapiens), P52564 [S207D,T211D]; experiment: Inhibition of human MKK6 S207D/T211D double mutant at 1 uM using p38-alpha KA as substrate in presence of 33P-ATP by ProQinase assay
[2] = biological target: Protein kinase C gamma type (Homo sapiens) (UniProt P05129); experiment: Inhibition of human PKCgamma at 1 uM using 3xChocktide-PKC as substrate in presence of 33P-ATP by ProQinase assay
[3] = biological target: Serine/threonine-protein kinase pim-2 (Homo sapiens) (UniProt Q9P1W9); experiment: Inhibition of recombinant human N-terminal GST-tagged PIM2 (2 to 334 residues) expressed in Escherichia coli assessed as remaining activity at 1 uM using RSRHSSYPAGT as substrate incubated for 30 mins in presence of [gamma-33P]ATP by filter binding method relative to control
[4] = biological target: Mitogen-activated protein kinase kinase kinase 10 (Homo sapiens) (UniProt Q02779); experiment: Inhibition of human MAP3K10 at 1 uM using histon H2B as substrate in presence of 33P-ATP by ProQinase assay
[5] = biological target: Serine/threonine-protein kinase PAK 5 (Homo sapiens) (UniProt Q9P286); experiment: Inhibition of human PAK7 at 1 uM using bio-4xCHKT as substrate in presence of 33P-ATP by ProQinase assay
[6] = biological target: Activated CDC42 kinase 1 (Homo sapiens) (UniProt Q07912); experiment: Inhibition of human ACK1 at 1 uM using polyEy as substrate in presence of 33P-ATP by ProQinase assay
[7] = biological target: Tyrosine-protein kinase ZAP-70 (Homo sapiens) (UniProt P43403); experiment: Inhibition of human ZAP70 at 1 uM using polyEY as substrate in presence of 33P-ATP by ProQinase assay
[8] = biological target: Dual specificity protein kinase TTK (Homo sapiens) (UniProt P33981); experiment: Inhibition of recombinant human N-terminal His6-tagged TTK (1 to 857 residues) expressed in baculovirus infected Sf21 cells assessed as remaining activity at 1 uM using RSRSRSRSRSRSRSR as substrate incubated for 30 mins in presence of [gamma-33P]ATP by filter binding method relative to control
[9] = biological target: Protein kinase C alpha type (Homo sapiens) (UniProt P17252); experiment: Inhibition of recombinant human N-terminal GST-tagged PKCA (2 to 351 residues) expressed in Escherichia coli assessed as remaining activity at 1 uM using kKemptide as substrate incubated for 30 mins in presence of [gamma-33P]ATP by filter binding method relative to control
[10] = biological target: Ephrin type-B receptor 2 (Homo sapiens) (UniProt P29323); experiment: Inhibition of human EPHB2 at 1 uM using poly(Ala,Glu,Lys,Tyr) as substrate in presence of 33P-ATP by ProQinase assay
[11] = biological target: G protein-coupled receptor kinase 6 (Homo sapiens) (UniProt P43250); experiment: Inhibition of human GRK6 at 1 uM using casein as substrate in presence of 33P-ATP by ProQinase assay
[12] = biological target: Homeodomain-interacting protein kinase 1 (Homo sapiens) (UniProt Q86Z02); experiment: Inhibition of human HIPK1 at 1 uM using RBER-CHKtide as substrate in presence of 33P-ATP by ProQinase assay
[13] = biological target: CDK4/Cyclin D3 (Homo sapiens) (UniProt P11802+P30281); experiment: Inhibition of human CDK4/CycD3 at 1 uM using RBER-CHKtide as substrate in presence of 33P-ATP by ProQinase assay; type: protein-complex assay
[14] = biological target: Protein kinase C alpha type (Homo sapiens) (UniProt P17252); experiment: Inhibition of human PKCalpha at 1 uM using 3xChocktide-PKC as substrate in presence of 33P-ATP by ProQinase assay
[15] = biological target: Phosphatidylinositol 5-phosphate 4-kinase type-2 alpha (Homo sapiens) (UniProt P48426); experiment: Inhibition of recombinant human N-terminal His6-tagged PIP5K2alpha (1 to 406 residues) expressed in Escherichia coli at 1 uM using diC8 PI(5)P as substrate incubated for 40 mins by ADP-Glo assay
[16] = biological target: Tyrosine-protein kinase SYK (Homo sapiens) (UniProt P43405); experiment: Inhibition of human SYK (1 to 635 residues) at 1 uM using polyEY as substrate in presence of 33P-ATP by ProQinase assay
[17] = biological target: PI3-kinase p110-alpha/p85-alpha (Homo sapiens, UniProt P42336); experiment: Inhibition of human PIK3CA/PIK3R1 using PIP2/PS as substrate by ADP-Glo assay; type: protein-complex assay
[18] = biological target: Receptor-interacting serine/threonine-protein kinase 2 (Homo sapiens) (UniProt O43353); experiment: Inhibition of recombinant human N-terminal GST-tagged RIPK2 (2 to 311 residues) expressed in baculovirus infected Sf21 cells assessed as remaining activity at 1 uM using MBP as substrate incubated for 30 mins in presence of [gamma-33P]ATP by filter binding method relative to control
[19] = biological target: Serine/threonine-protein kinase ULK1 (Homo sapiens) (UniProt O75385); experiment: Inhibition of recombinant human ULK1 (2 to 1050 residues) expressed in baculovirus infected Sf21 cells assessed as remaining activity at 1 uM using MBP as substrate incubated for 30 mins in presence of [gamma-33P]ATP by filter binding method relative to control
[20] = biological target: PI3-kinase p110-delta/p85-alpha (Homo sapiens, UniProt O00329); experiment: Inhibition of human PIK3CD/PIK3R1 using PIP2/PS as substrate by ADP-Glo assay; type: protein-complex assay
[21] = biological target: CDK1/Cyclin E (Homo sapiens) (UniProt P06493+P24864); experiment: Inhibition of human CDK1/Cyclin E1at 1 uM using RBER-CHKtide as substrate in presence of 33P-ATP by ProQinase assay; type: protein-complex assay
[22] = biological target: Serine/threonine-protein kinase 16 (Homo sapiens) (UniProt O75716); experiment: Inhibition of human TSF1 at 1 uM using casein as substrate in presence of 33P-ATP by ProQinase assay
[23] = biological target: Diacylglycerol kinase alpha (Homo sapiens) (UniProt P23743); experiment: Inhibition of DGKalpha (unknown origin) at 1 uM
[24] = biological target: Serine/threonine-protein kinase 24 (Homo sapiens) (UniProt Q9Y6E0); experiment: Inhibition of recombinant human N-terminal GST-tagged MST3 (1 to 431 residues) expressed in baculovirus infected Sf21 cells assessed as remaining activity at 1 uM using MBP as substrate incubated for 30 mins in presence of [gamma-33P]ATP by filter binding method relative to control
[25] = biological target: Mitogen-activated protein kinase 9 (Homo sapiens) (UniProt P45984); experiment: Inhibition of recombinant human N-terminal His6-tagged JNK2 (1 to 424 residues) expressed in baculovirus infected Sf21 cells assessed as remaining activity at 1 uM using ATF2 as substrate incubated for 30 mins in presence of [gamma-33P]ATP by filter binding method relative to control

Mitogen-activated protein kinase kinase kinase 10 (Homo sapiens), sequence (Q02779 whole entry, looked up): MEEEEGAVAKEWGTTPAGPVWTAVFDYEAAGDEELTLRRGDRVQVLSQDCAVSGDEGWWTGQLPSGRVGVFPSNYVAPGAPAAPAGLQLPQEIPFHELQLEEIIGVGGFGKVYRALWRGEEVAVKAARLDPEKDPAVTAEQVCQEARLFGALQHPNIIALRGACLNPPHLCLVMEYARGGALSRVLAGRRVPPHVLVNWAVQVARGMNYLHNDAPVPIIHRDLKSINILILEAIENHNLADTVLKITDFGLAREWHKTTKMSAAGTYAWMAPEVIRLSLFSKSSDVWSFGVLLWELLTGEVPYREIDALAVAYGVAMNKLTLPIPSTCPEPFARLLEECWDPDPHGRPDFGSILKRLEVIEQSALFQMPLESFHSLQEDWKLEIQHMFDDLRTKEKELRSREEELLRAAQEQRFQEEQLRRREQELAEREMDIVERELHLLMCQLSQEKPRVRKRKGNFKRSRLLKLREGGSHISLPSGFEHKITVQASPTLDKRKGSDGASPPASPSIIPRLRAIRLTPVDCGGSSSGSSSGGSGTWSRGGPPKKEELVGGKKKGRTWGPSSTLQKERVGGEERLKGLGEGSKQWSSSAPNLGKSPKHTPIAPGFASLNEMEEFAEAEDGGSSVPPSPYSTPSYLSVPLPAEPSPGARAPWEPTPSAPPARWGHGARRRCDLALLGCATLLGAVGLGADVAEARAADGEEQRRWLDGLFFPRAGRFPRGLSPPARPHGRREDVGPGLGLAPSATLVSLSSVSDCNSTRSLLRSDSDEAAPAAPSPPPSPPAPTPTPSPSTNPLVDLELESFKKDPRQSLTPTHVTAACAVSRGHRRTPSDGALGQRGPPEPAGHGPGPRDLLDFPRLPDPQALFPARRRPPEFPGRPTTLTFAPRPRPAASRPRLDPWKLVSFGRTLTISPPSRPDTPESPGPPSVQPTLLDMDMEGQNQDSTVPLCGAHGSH
PI3-kinase p110-alpha/p85-alpha, sequence (P27986 whole entry, the tested form may be a part): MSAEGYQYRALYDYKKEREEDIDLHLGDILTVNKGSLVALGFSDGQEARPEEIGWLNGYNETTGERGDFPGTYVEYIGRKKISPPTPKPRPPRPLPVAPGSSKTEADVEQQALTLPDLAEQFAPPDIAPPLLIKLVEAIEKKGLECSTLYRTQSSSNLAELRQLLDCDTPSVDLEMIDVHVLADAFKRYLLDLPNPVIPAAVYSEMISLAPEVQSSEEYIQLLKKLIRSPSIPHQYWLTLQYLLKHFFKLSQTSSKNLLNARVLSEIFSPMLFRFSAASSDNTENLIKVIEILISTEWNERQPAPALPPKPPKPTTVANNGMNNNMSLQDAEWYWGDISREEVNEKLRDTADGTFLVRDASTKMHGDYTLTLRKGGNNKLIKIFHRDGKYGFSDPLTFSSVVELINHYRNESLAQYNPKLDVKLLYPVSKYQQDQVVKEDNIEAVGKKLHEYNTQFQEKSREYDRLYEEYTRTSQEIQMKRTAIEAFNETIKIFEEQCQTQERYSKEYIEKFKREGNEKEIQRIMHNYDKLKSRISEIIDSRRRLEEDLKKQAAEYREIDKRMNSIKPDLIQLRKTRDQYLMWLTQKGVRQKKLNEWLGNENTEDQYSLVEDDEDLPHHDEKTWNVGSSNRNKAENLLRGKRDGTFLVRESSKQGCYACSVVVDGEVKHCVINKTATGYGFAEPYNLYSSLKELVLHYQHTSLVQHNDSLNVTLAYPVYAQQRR
PI3-kinase p110-alpha/p85-alpha, sequence (P42336 whole entry, the tested form may be a part): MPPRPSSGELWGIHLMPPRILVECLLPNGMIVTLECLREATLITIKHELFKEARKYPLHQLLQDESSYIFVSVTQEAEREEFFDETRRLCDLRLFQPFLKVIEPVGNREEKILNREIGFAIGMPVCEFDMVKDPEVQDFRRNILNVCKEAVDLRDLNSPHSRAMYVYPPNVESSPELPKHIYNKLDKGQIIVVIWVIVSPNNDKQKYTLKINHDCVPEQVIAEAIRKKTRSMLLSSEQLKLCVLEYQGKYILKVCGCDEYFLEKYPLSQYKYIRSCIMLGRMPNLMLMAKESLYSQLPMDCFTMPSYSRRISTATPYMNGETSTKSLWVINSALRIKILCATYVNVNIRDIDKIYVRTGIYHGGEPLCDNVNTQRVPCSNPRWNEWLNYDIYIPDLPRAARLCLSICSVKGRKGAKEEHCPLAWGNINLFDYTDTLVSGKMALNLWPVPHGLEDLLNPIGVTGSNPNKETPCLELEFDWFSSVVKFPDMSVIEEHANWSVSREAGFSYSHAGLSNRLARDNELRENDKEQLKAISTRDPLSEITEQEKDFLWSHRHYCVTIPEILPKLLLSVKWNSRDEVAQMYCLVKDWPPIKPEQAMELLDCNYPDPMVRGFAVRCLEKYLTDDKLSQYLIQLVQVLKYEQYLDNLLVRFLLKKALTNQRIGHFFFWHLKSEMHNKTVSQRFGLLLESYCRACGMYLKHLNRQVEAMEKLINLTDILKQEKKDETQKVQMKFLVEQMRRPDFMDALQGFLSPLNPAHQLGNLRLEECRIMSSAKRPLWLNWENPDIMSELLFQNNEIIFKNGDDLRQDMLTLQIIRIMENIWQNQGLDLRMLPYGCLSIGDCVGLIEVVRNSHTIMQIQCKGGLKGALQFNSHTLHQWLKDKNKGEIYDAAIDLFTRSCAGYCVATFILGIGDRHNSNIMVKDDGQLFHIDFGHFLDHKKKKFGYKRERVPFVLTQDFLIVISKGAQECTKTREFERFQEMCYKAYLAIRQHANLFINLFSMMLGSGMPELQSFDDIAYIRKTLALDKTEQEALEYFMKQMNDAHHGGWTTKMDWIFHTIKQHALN
PI3-kinase p110-delta/p85-alpha, sequence (P27986 whole entry): as the sequence (P27986 whole entry, the tested form may be a part) above
PI3-kinase p110-delta/p85-alpha, sequence (O00329 whole entry): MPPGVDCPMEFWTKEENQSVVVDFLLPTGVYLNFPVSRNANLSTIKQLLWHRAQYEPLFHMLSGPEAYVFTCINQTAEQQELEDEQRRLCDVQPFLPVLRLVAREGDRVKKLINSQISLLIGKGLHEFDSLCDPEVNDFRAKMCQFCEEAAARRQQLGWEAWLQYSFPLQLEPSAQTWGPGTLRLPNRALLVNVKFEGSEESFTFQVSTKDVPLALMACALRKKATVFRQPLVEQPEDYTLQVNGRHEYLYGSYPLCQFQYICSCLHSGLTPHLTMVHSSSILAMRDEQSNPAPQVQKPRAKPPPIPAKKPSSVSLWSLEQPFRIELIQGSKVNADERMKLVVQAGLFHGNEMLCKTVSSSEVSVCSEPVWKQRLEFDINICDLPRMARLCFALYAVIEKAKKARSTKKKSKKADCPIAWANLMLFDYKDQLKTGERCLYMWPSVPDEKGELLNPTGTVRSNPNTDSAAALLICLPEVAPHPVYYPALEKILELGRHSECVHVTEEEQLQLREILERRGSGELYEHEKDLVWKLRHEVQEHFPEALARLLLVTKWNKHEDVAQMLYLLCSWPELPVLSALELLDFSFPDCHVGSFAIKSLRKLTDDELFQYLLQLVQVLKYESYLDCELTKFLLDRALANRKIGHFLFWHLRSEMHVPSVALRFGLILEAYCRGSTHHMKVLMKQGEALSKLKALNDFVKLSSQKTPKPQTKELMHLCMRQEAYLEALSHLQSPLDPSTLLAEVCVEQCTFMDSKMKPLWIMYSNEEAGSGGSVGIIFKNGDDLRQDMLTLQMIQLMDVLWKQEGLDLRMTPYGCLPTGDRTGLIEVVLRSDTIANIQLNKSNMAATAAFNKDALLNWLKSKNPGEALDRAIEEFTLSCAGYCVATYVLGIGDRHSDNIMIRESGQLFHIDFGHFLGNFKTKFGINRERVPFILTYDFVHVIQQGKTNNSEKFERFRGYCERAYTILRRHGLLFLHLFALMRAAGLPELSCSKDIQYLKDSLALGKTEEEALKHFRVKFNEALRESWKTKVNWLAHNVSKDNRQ
Serine/threonine-protein kinase pim-2 (Homo sapiens), sequence (Q9P1W9 whole entry, looked up, the tested form may be a part): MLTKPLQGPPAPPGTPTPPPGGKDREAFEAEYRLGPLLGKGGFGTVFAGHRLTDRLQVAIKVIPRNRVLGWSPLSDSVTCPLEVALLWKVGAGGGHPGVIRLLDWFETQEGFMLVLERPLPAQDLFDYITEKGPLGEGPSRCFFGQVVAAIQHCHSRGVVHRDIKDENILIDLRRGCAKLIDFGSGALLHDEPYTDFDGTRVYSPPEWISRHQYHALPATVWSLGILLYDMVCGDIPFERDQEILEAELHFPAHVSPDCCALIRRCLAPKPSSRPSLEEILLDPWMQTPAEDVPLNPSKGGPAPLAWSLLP

For `CC(C)(O)CNc1ncc(-c2ccnc(Nc3ccnc(Cl)c3)n2)c(CC2CC2)n1`, the inhibition [1] was “inactive”, the inhibition [2] was “inactive” and the Activity [3] was 113%. The inhibition [4] was “inactive”, the inhibition [5] was “inactive” and the inhibition [6] was “inactive”. For the same compound, the inhibition [7] was “inactive”, the Activity [8] was 108% and the Activity [9] was 112%. The inhibition [10] was “inactive”, the inhibition [11] was “inactive” and the inhibition [12] was “inactive”. For the same compound, the inhibition [13] was “inactive”, the inhibition [14] was “inactive” and the inhibition [15] was “inactive”. The inhibition [16] was “inactive”, the IC50 [17] was over 10 µM and the Activity [18] was 79%. The Activity [19] was 98%, the IC50 [20] was over 10 µM and the inhibition [21] was “inactive”. The inhibition [22] was “inactive”, the inhibition [23] was “inactive” and the Activity [24] was 118%. For the same compound, the Activity [25] was 113%.
